PubChem BioAssay (NCI)
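Briefly, cells in 96-well plates were exposed to five compound concentrations for 48 h, and endpoints were estimated by linear interpolation. TGI is the concentration that stops growth completely.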

Experiments:
Assay in all cases: NCI-60 cell line screen, 48 h
SK-OV-3 ovarian = test system: SK-OV-3 ovarian
SK-MEL-5 melanoma = test system: SK-MEL-5 melanoma
HT29 colon = test system: HT29 colon
MDA-MB-231 breast = test system: MDA-MB-231 breast
LOX IMVI melanoma = test system: LOX IMVI melanoma
HL-60(TB) leukemia = test system: HL-60(TB) leukemia
OVCAR-4 ovarian = test system: OVCAR-4 ovarian
NCI-H460 lung = test system: NCI-H460 lung
HOP-62 NSCLC = test system: HOP-62 NSCLC
SR leukemia = test system: SR leukemia
KM12 colon = test system: KM12 colon
M14 melanoma = test system: M14 melanoma
TK-10 renal = test system: TK-10 renal
HCT-116 colon = test system: HCT-116 colon
HS 578T breast = test system: HS 578T breast
HCC-2998 colon = test system: HCC-2998 colon
IGROV1 ovarian = test system: IGROV1 ovarian
SNB-75 CNS = test system: SNB-75 CNS
NCI-H23 lung = test system: NCI-H23 lung
SF-295 CNS = test system: SF-295 CNS
OVCAR-3 ovarian = test system: OVCAR-3 ovarian
BT-549 breast = test system: BT-549 breast
A498 renal = test system: A498 renal
MDA-N = test system: MDA-N
MCF7 breast = test system: MCF7 breast
DU-145 prostate = test system: DU-145 prostate
SN12C renal = test system: SN12C renal
CAKI-1 renal = test system: CAKI-1 renal
SK-MEL-28 melanoma = test system: SK-MEL-28 melanoma
U251 CNS = test system: U251 CNS
SNB-19 CNS = test system: SNB-19 CNS
OVCAR-8 ovarian = test system: OVCAR-8 ovarian
MOLT-4 leukemia = test system: MOLT-4 leukemia
MALME-3M melanoma = test system: MALME-3M melanoma
T-47D breast = test system: T-47D breast
786-0 renal = test system: 786-0 renal
HCT-15 colon = test system: HCT-15 colon
SW-620 colon = test system: SW-620 colon
K-562 leukemia = test system: K-562 leukemia
NCI-H522 lung = test system: NCI-H522 lung
CCRF-CEM leukemia = test system: CCRF-CEM leukemia
RXF 393 renal = test system: RXF 393 renal
EKVX NSCLC = test system: EKVX NSCLC
NCI-H226 lung = test system: NCI-H226 lung
OVCAR-5 ovarian = test system: OVCAR-5 ovarian
UACC-257 melanoma = test system: UACC-257 melanoma
MDA-MB-435 = test system: MDA-MB-435
UO-31 renal = test system: UO-31 renal
UACC-62 melanoma = test system: UACC-62 melanoma
SK-MEL-2 melanoma = test system: SK-MEL-2 melanoma
NCI/ADR-RES ovarian = test system: NCI/ADR-RES ovarian
SF-539 CNS = test system: SF-539 CNS
SF-268 CNS = test system: SF-268 CNS
PC-3 prostate = test system: PC-3 prostate
HOP-92 NSCLC = test system: HOP-92 NSCLC
A549 NSCLC = test system: A549 NSCLC
ACHN renal = test system: ACHN renal
RPMI-8226 leukemia = test system: RPMI-8226 leukemia
COLO 205 colon = test system: COLO 205 colon

COC(=O)c1c2c(cc3c1CC1(C3)Cc3ccc4c(c3C1=O)CCC4)CCC2 (stereo unspecified)
TGI (SK-OV-3 ovarian): > 77.4 µM
TGI (SK-MEL-5 melanoma): 20.4 µM
TGI (HT29 colon): 8.45 µM
TGI (MDA-MB-231 breast): 8.88 µM
TGI (LOX IMVI melanoma): > 58.1 µM
TGI (HL-60(TB) leukemia): > 28.3 µM
TGI (OVCAR-4 ovarian): > 92 µM
TGI (NCI-H460 lung): > 100 µM
TGI (HOP-62 NSCLC): > 30 µM
TGI (SR leukemia): > 21.9 µM
TGI (KM12 colon): > 100 µM
TGI (M14 melanoma): 18.6 µM
TGI (TK-10 renal): > 35.3 µM
TGI (HCT-116 colon): > 62.2 µM
TGI (HS 578T breast): 6.62 µM
TGI (HCC-2998 colon): 40.1 µM
TGI (IGROV1 ovarian): > 100 µM
TGI (SNB-75 CNS): > 25.9 µM
TGI (NCI-H23 lung): > 31.6 µM
TGI (SF-295 CNS): > 28.8 µM
TGI (OVCAR-3 ovarian): > 31.5 µM
TGI (BT-549 breast): > 42.9 µM
TGI (A498 renal): > 49.7 µM
TGI (MDA-N): 2.81 µM
TGI (MCF7 breast): > 66.7 µM
TGI (DU-145 prostate): > 100 µM
TGI (SN12C renal): > 100 µM
TGI (CAKI-1 renal): 21.2 µM
TGI (SK-MEL-28 melanoma): > 100 µM
TGI (U251 CNS): > 94.3 µM
TGI (SNB-19 CNS): 62.1 µM
TGI (OVCAR-8 ovarian): > 82 µM
TGI (MOLT-4 leukemia): > 100 µM
TGI (MALME-3M melanoma): > 45.5 µM
TGI (T-47D breast): > 100 µM
TGI (786-0 renal): > 56.1 µM
TGI (HCT-15 colon): > 100 µM
TGI (SW-620 colon): > 100 µM
TGI (K-562 leukemia): > 100 µM
TGI (NCI-H522 lung): 6.19 µM
TGI (CCRF-CEM leukemia): > 81.8 µM
TGI (RXF 393 renal): 3.14 µM
TGI (EKVX NSCLC): > 100 µM
TGI (NCI-H226 lung): > 30 µM
TGI (OVCAR-5 ovarian): > 100 µM
TGI (UACC-257 melanoma): > 100 µM
TGI (MDA-MB-435): 3.22 µM
TGI (UO-31 renal): > 44.6 µM
TGI (UACC-62 melanoma): > 25.3 µM
TGI (SK-MEL-2 melanoma): 27 µM
TGI (NCI/ADR-RES ovarian): > 22.5 µM
TGI (SF-539 CNS): 9.36 µM
TGI (SF-268 CNS): > 100 µM
TGI (PC-3 prostate): > 24.4 µM
TGI (HOP-92 NSCLC): > 70.6 µM
TGI (A549 NSCLC): > 100 µM
TGI (ACHN renal): > 31.6 µM
TGI (RPMI-8226 leukemia): > 72.6 µM

Nc1nc(NCC2(CO)CC(CCc3ccccc3)C2)cc(=O)[nH]1 (stereo unspecified)
TGI (SK-OV-3 ovarian): 80.6 µM
TGI (SK-MEL-5 melanoma): > 100 µM
TGI (HT29 colon): > 100 µM
TGI (MDA-MB-231 breast): > 100 µM
TGI (LOX IMVI melanoma): > 100 µM
TGI (HL-60(TB) leukemia): > 100 µM
TGI (OVCAR-4 ovarian): > 100 µM
TGI (NCI-H460 lung): > 100 µM
TGI (HOP-62 NSCLC): > 100 µM
TGI (SR leukemia): > 100 µM
TGI (KM12 colon): > 100 µM
TGI (M14 melanoma): > 100 µM
TGI (HCT-116 colon): > 100 µM
TGI (HS 578T breast): > 100 µM
TGI (HCC-2998 colon): > 100 µM
TGI (IGROV1 ovarian): > 100 µM
TGI (COLO 205 colon): > 100 µM
TGI (SNB-75 CNS): > 100 µM
TGI (NCI-H23 lung): > 100 µM
TGI (SF-295 CNS): > 100 µM
TGI (OVCAR-3 ovarian): > 100 µM
TGI (BT-549 breast): > 100 µM
TGI (A498 renal): > 100 µM
TGI (MDA-N): > 100 µM
TGI (MCF7 breast): > 100 µM
TGI (DU-145 prostate): > 100 µM
TGI (SN12C renal): > 100 µM
TGI (CAKI-1 renal): > 100 µM
TGI (SK-MEL-28 melanoma): > 100 µM
TGI (U251 CNS): > 100 µM
TGI (SNB-19 CNS): > 100 µM
TGI (OVCAR-8 ovarian): > 100 µM
TGI (MOLT-4 leukemia): > 100 µM
TGI (MALME-3M melanoma): > 100 µM
TGI (T-47D breast): > 100 µM
TGI (786-0 renal): > 100 µM
TGI (HCT-15 colon): > 100 µM
TGI (SW-620 colon): > 100 µM
TGI (K-562 leukemia): > 100 µM
TGI (NCI-H522 lung): > 100 µM
TGI (CCRF-CEM leukemia): > 100 µM
TGI (RXF 393 renal): > 100 µM
TGI (EKVX NSCLC): > 100 µM
TGI (NCI-H226 lung): > 100 µM
TGI (OVCAR-5 ovarian): > 100 µM
TGI (UACC-257 melanoma): > 100 µM
TGI (MDA-MB-435): > 100 µM
TGI (UO-31 renal): 67.8 µM
TGI (UACC-62 melanoma): > 100 µM
TGI (SK-MEL-2 melanoma): > 100 µM
TGI (NCI/ADR-RES ovarian): > 100 µM
TGI (SF-268 CNS): > 100 µM
TGI (PC-3 prostate): > 100 µM
TGI (HOP-92 NSCLC): > 100 µM
TGI (A549 NSCLC): > 100 µM
TGI (RPMI-8226 leukemia): > 100 µM

O=C(O)c1nc2cc(C(F)(F)F)ccc2[nH]c1=O
TGI (SK-OV-3 ovarian): > 100 µM
TGI (SK-MEL-5 melanoma): > 100 µM
TGI (HT29 colon): > 100 µM
TGI (MDA-MB-231 breast): > 100 µM
TGI (LOX IMVI melanoma): > 100 µM
TGI (HL-60(TB) leukemia): > 100 µM
TGI (OVCAR-4 ovarian): > 100 µM
TGI (NCI-H460 lung): > 100 µM
TGI (HOP-62 NSCLC): > 100 µM
TGI (SR leukemia): > 100 µM
TGI (KM12 colon): > 100 µM
TGI (M14 melanoma): > 100 µM
TGI (TK-10 renal): > 100 µM
TGI (HCT-116 colon): > 100 µM
TGI (HS 578T breast): > 100 µM
TGI (HCC-2998 colon): > 100 µM
TGI (IGROV1 ovarian): > 100 µM
TGI (COLO 205 colon): > 100 µM
TGI (NCI-H23 lung): > 100 µM
TGI (SF-295 CNS): > 100 µM
TGI (OVCAR-3 ovarian): > 100 µM
TGI (BT-549 breast): > 100 µM
TGI (A498 renal): > 100 µM
TGI (MDA-N): > 100 µM
TGI (MCF7 breast): > 100 µM
TGI (DU-145 prostate): > 100 µM
TGI (SN12C renal): > 100 µM
TGI (CAKI-1 renal): > 100 µM
TGI (SK-MEL-28 melanoma): > 100 µM
TGI (U251 CNS): > 100 µM
TGI (SNB-19 CNS): > 100 µM
TGI (OVCAR-8 ovarian): > 100 µM
TGI (MOLT-4 leukemia): > 100 µM
TGI (MALME-3M melanoma): > 100 µM
TGI (T-47D breast): > 100 µM
TGI (786-0 renal): > 100 µM
TGI (HCT-15 colon): > 100 µM
TGI (SW-620 colon): > 100 µM
TGI (K-562 leukemia): > 100 µM
TGI (NCI-H522 lung): > 100 µM
TGI (CCRF-CEM leukemia): > 100 µM
TGI (EKVX NSCLC): > 100 µM
TGI (NCI-H226 lung): > 100 µM
TGI (OVCAR-5 ovarian): > 100 µM
TGI (UACC-257 melanoma): > 100 µM
TGI (MDA-MB-435): > 100 µM
TGI (UO-31 renal): > 100 µM
TGI (UACC-62 melanoma): > 100 µM
TGI (SK-MEL-2 melanoma): > 100 µM
TGI (NCI/ADR-RES ovarian): > 100 µM
TGI (SF-539 CNS): > 100 µM
TGI (SF-268 CNS): > 100 µM
TGI (PC-3 prostate): > 100 µM
TGI (HOP-92 NSCLC): > 100 µM
TGI (A549 NSCLC): > 100 µM
TGI (ACHN renal): > 100 µM
TGI (RPMI-8226 leukemia): > 100 µM
